Patent US20060063825A1, “Crystalline form of a drug” (priority 2004, published 2006)
Values after ≈ are worked out from the molar mass of the structure shown. Where a name gives a salt, the structure may show the parent alone. Values belong to the compound of their own block, whether it stands above or below them.

What was measured:
[1] = Conversion of crystalline forms of atrasentan hydrochloride to Form 2 in representative solvents at 25° C.; assay type: physicochemical; parameters: key: 1, 2 and 3 mean Atrasentan Hydrochloride Crystalline Forms 1, 2 and 3, respectively.; 1, 2 and 3 mean Atrasentan Hydrochloride Crystalline Forms 1, 2 and 3, respectively.; 1, 2 and 3 mean Atrasentan Hydrochloride Crystalline Forms 1, 2 and 3, respectively
Description: Examples of representative solvents that are useful for converting a particular crystalline form of atrasentan hydrochloride to Atrasentan Hydrochloride Crystalline Form 2 having substantial crystalline purity at 25° C. are shown in TABLE 2.

[2] = Solubility of Atrasentan Hydrochloride Crystalline Forms in 1,4-dioxane; assay type: physicochemical; conditions: 1,4-dioxane at 25° C. (n=3)
Description: The solubility (in mg/mL) of Atrasentan Hydrochloride Crystalline Forms 1, 2 and 3 in 1,4-dioxane at 25° C.

crystalline form present ([1]; 0.1M HCl, week 1, 25° C.): 1
crystalline form present ([1]; 0.1M HCl, week 2, 25° C.): 1
crystalline form present ([1]; 0.1M HCl, week 4, 25° C.): 1
crystalline form present ([1]; 0.1M HCl, week 9, 25° C.): 2
crystalline form present ([1]; 0.1M HCl, week 16, 25° C.): 2
crystalline form present ([1]; IPA (isopropyl alcohol), week 1, 25° C.): 1
crystalline form present ([1]; IPA (isopropyl alcohol), week 2, 25° C.): 1
crystalline form present ([1]; IPA (isopropyl alcohol), week 4, 25° C.): 2
crystalline form present ([1]; IPA (isopropyl alcohol), week 9, 25° C.): 2
crystalline form present ([1]; IPA (isopropyl alcohol), week 16, 25° C.): 2
crystalline form present ([1]; PEG 400 (polyethylene glycol), week 1, 25° C.): 1
crystalline form present ([1]; PEG 400 (polyethylene glycol), week 2, 25° C.): 1
crystalline form present ([1]; PEG 400 (polyethylene glycol), week 4, 25° C.): 1
crystalline form present ([1]; PEG 400 (polyethylene glycol), week 9, 25° C.): 1
crystalline form present ([1]; PEG 400 (polyethylene glycol), week 16, 25° C.): 2
crystalline form present ([1]; acetone, week 1, 25° C.): 2
crystalline form present ([1]; acetone, week 2, 25° C.): 2
crystalline form present ([1]; acetone, week 4, 25° C.): 2
crystalline form present ([1]; acetone, week 9, 25° C.): 2
crystalline form present ([1]; acetone, week 16, 25° C.): 2
crystalline form present ([1]; ethanol, week 1, 25° C.): 2
crystalline form present ([1]; ethanol, week 2, 25° C.): 2
crystalline form present ([1]; ethanol, week 4, 25° C.): 2
crystalline form present ([1]; ethanol, week 9, 25° C.): 2
crystalline form present ([1]; ethanol, week 16, 25° C.): 2
crystalline form present ([1]; ethyl acetate, week 1, 25° C.): 1
crystalline form present ([1]; ethyl acetate, week 2, 25° C.): 1
crystalline form present ([1]; ethyl acetate, week 4, 25° C.): 1
crystalline form present ([1]; ethyl acetate, week 9, 25° C.): 2
crystalline form present ([1]; ethyl acetate, week 16, 25° C.): 2
crystalline form present ([1]; nitromethane, week 1, 25° C.): 3
crystalline form present ([1]; nitromethane, week 2, 25° C.): 3
crystalline form present ([1]; nitromethane, week 4, 25° C.): 3
crystalline form present ([1]; nitromethane, week 9, 25° C.): 3
crystalline form present ([1]; nitromethane, week 16, 25° C.): 2
Structure (SMILES): CCCCN(CCCC)C(=O)CN1C[C@H](c2ccc3c(c2)OCO3)[C@@H](C(=O)O)[C@@H]1c1ccc(OC)cc1 [atrasentan hydrochloride, (2R,3R,4S)-(+)-2-(4-methoxyphenyl)-4-(1,3-benzodioxol-5-yl)-1-(N,N-di(n-butyl)aminocarbonylmethyl)pyrrolidine-3-carboxylic acid]

solubility [2]: 16.53 ± 0.22 mg/mL (≈ 32.4 mM)
Structure (SMILES): CCCCN(CCCC)C(=O)CN1C[C@H](c2ccc3c(c2)OCO3)[C@@H](C(=O)O)[C@@H]1c1ccc(OC)cc1 [Form 3, (2R,3R,4S)-(+)-2-(4-methoxyphenyl)-4-(1,3-benzodioxol-5-yl)-1-(N,N-di(n-butyl)aminocarbonylmethyl)pyrrolidine-3-carboxylic acid]
